The text below walks through data of paper PMC3676791, “Synthesis, Cytotoxicity, DNA Binding and Apoptosis of Rhein-Phosphonate Derivatives as Antitumor Agents” (International Journal of Molecular Sciences, 2013).

As a reminder, the IC50 is the concentration at which inhibition is half-maximal.

Test [1] deals with HepG-2 cells. In words: MTT cytotoxicity assay, HepG-2. The conditions noted are these: 72 h, mean ± SD, three independent experiments. It is filed as cell-based, human. The text has this:
(§1) The following in vitro human cancer cell lines were used: HepG 2 ([…]), Hela (Henrietta Lacks strain of cancer cells), Hct-116 (human colorectal cells), CNE (human nasopharyngeal carcinoma cells), Spca-2 (human lung adenocarcinoma cell line), HUVEC (human umbilical vein endothelial cells). The cell lines (HepG 2, Hela, Hct-116, CNE, Spca-2, HUVEC) were purchased from the Cell Resource Center of Shanghai Institutes for Biological Sciences, The Academy of Sciences of China.
(§2) HepG-2, Hela, Hct-116, CNE, HUVEC cells were cultured in Dulbecco Modified Eagle Medium (DMEM) (Thermo), containing 4.0 mM L-Glutamine and 4,500 mg/L Glucose, supplemented with 10% (v/v) fetal bovine serum (FBS; HyClone, Logan, UT, USA). Spca-2 cells were cultured in RPMI-1640 medium, containing 2.05 mM L-Glutamine without Calcium nitrate, supplemented with 10% (v/v) fetal bovine serum (FBS; HyClone). The cell culture media was supplemented with penicillin/streptomycin at 100 Units/mL as adherent monolayers. Cell cultures were kept in a humidified incubator with 5% CO2 at 37 °C. Stock solutions were prepared in dimethyl sulfoxide (DMSO) and further dilutions were made with fresh culture medium. The concentration of DMSO in the final culture medium was 1%, which had no effect on the cell viability.
(§3) Chemosensitivity was assessed using 3-(4,5-dimethylthiazol-2-yl)-2,5-diphenyl tetrazolium bromide (MTT) assay. Briefly, exponentially growing HepG-2 (2,000–3,000 cells/well), Hela (2,000–3,000 cells/well), Hct-116 (3,000–4,000 cells/well), CNE (2,000–3,000 cells/well), HUVEC (2,000–3,000 cells/well) and Spca-2 […], and then […] of MTT (10 mg/mL) was added. After incubation for 4 h at 37 °C, the purple formazan crystals (i.e., a reduced form of MTT) generated from viable cells were dissolved by adding 100 μL DMSO in each well. The plates were swirled gently for 10 min to dissolve the precipitate, and quantified by measuring the optical density (OD) of the plates at a wavelength of 490 nm on plate reader (TECAN infinite M1000). Each concentration was repeated in three wells and the same experimental conditions were provided for all compounds and MTT analysis was repeated three times for each cell line.
In general terms: Tetrazolium dyes change colour on reduction, which living cells bring about.

A further test has as its system CNE cells. In words: MTT cytotoxicity assay, CNE. The test is classed as cell-based, human. The conditions noted are these: 72 h, mean ± SD, three independent experiments.
From the text: as §1, §2, §3

A further test has as its system Hela cells. In words: MTT cytotoxicity assay, Hela. It is filed as cell-based, human. To be noted: 72 h, mean ± SD, three independent experiments.
From the text: as §1, §2, §3

The test system of test [2] is Hct-116 cells. To be noted: cited from earlier work.
Another test deals with HUVEC cells. Put plainly: MTT cytotoxicity assay, HUVEC normal cells. It is filed as cell-based, human. The conditions noted are these: normal cell line, 72 h, mean ± SD, three independent experiments.
From the text: as §1, §2, §3

In test [3] the test system is HepG-2 cells. In words: Cell cycle analysis by PI flow cytometry, HepG-2. To be noted: 48 h, untreated 4.27%. It is filed as cell-based, human. An excerpt:
The cell cycle is the series of events that take place in a cell leading to its division and duplication (replication). The cell cycle consists of four distinct phases: G1 phase, S phase (synthesis), G2 phase (collectively known as interphase) and M phase (mitosis). The G1 stage is the stage when preparation of energy and material for DNA replication occurs. The S stage is the stage when DNA replication occurs. The G2 stage is the stage when preparation for the M stage occurs. The M stage is “mitosis,” and is when nuclear and cytoplasmic division occurs.
The cell lines were treated with indicated concentrations of compounds. After being incubated for 48 h, cells were washed twice with ice-cold PBS, fixed and permeabilized with ice-cold 70% ethanol at −20 °C overnight. The cells were treated with 100 μg/mL RNase A at 37 °C for 30 min after washed with ice-cold PBS, and finally stained with 1 mg/mL propidium iodide (PI) in the dark at 4 °C for 30 min. Analysis was performed with the system software (CellQuest; BD Biosciences).
(In flow cytometry, cells or beads pass a laser one at a time.)

Test [4] concerns ct-DNA. In words: GelRed-ct-DNA competitive fluorescence quenching (Stern-Volmer). The test is classed as binding, calf. The arrangement: unit not given here. The conditions noted are these: [GelRed]/[DNA] = 1:10, excitation 350 nm, emission 590 nm. The text has this:
The binding ability of these complexes to ct-DNA was primarily investigated by competitive binding in which they served as an intercalative binding probe in competition with GelRed. GelRed, which is environmentally safe and ultra-sensitive for DNA staining, is a newly developed DNA intercalator to replace the classic DNA intercalator EB. Furthermore, both GelRed and EB bound with ct-DNA emit characteristic fluorescence at 590 nm upon 350 nm UV light excitation.
In competitive binding experiments, GelRed and ct-DNA solutions were pre-incubated for 30 min to ensure sufficient interactions. The concentration ratio of GelRed to DNA was set at [GelRed]/[DNA] = 1:10 to ensure sufficient binding sites of DNA for GelRed. The emission spectra of the GelRed–ctDNA system in the absence and presence of 5b were shown in Figure 2 (for that of 5a and 5c, see Figures S3 and S4). […] The presence of 5b considerably quenched the fluorescence emission of GelRed with the saturation state achieved at the [5b]/[GelRed] ratio of 8:1.
where [DNA] is the DNA concentration in nucleotides, ɛa is the molar extinction coefficient of the compound bound with DNA, ɛf is the extinction coefficient of the free compound, and ɛb is the extinction coefficient of the compound fully bound to DNA. ɛa, ɛf and ɛb are all calculated from the Lambert-Beer’s law (ɛ = A/[compound]). To determine ɛb, it is assumed that the compounds are fully bound with DNA at the point where no further hypochromicity is observed under the addition of ct-DNA, and the apparent absorbance Ab is regarded as the absorbance of only the bound compounds. Ct is the constant concentration of the compounds, and s is the number of binding sites in base pairs. A solution containing 2 × 10^−4 M DNA and 2 × 10^−5 M GelRed ([DNA]/[GelRed] = 10:1) was prepared for GelRed-DNA competitive binding studies. Fluorescence emission spectra were recorded under slit width as 10 nm/10 nm for Ex/Em, respectively. The quenching constant for comparing the efficiency of fluorescence quenching, i.e., Kq, of each compound was obtained by the linear fit of plotting I0/I versus [Q], according to the classic Stern-Volmer equation: I0/I = 1 + Kq × [Q] […] In the fluorescence polarization experiment, each sample was pre-incubated for 40 min before the fluorescence polarization was recorded under the condition of 595 nm emitting wavelength with 350 nm exciting wavelength, and slit width was set as 5 nm/5 nm for Ex/Em, respectively. CD absorption spectra of DNA were measured in TBS at a 100 nm/min scan rate in the wavelength range from 200 to 400 nm, with 1 × 10^−4 M DNA in the absence and presence of each compound of 2 × 10^−5 M, respectively. […]

Test [5] deals with Hct-116 cells. Put plainly: MTT cytotoxicity assay, Hct-116. To be noted: 72 h; mean ± SD, three independent experiments. The test is classed as cell-based, human.
From the text: as §1, §2
as §3, with “Each concentration was repeated in three wells and the same experimental conditions were provided for all compounds and MTT analysis was repeated three times for each cell line.” left out

The test system of test [6] is HepG-2 cells. Put plainly: Annexin V-FITC/PI apoptosis flow cytometry, HepG-2. It is filed as cell-based, human. To be noted: 24 h. The text has this:
Many anthraquinones such as rhein and emodim induce apoptosis. Flow cytometry was used to investigate analog-induced apoptosis and cell death. The compounds (5a–c) with cytotoxic effects were investigated for the effects on the apoptosis of HepG-2 cells. To clarify the mechanism of rhein derivative-induced cell death, we determined both early and late apoptosis using annexin V-FITC and PI (Propidium iodide) labeling of live cells. Annexin V binds to phosphatidylserine, which is exposed on the cell membrane and is one of the earliest indicators of cellular apoptosis. PI is used as a DNA stain for both flow cytometry to evaluate cell viability or DNA content in cell cycle analysis and microscopy to visualize the nucleus and other DNA containing organelles. It can be used to differentiate necrotic, apoptotic and normal cells. In the present study, the apoptotic cell rates were determined for the HepG-2 cells after stimulation for 24 h by the compounds at different concentrations. […] Compounds 5a and 5b induced apoptosis in 84.4% and 70.4% of the HepG-2 cells. Compounds 5a and 5b are of special interest as these compounds seem to drive HepG-2 cells directly into early apoptosis. Meanwhile, we also investigated for the effects on the apoptosis of HUVEC cells.
Apoptosis was discriminated with the annexin V-FITC/propidium iodide test. […]

In the next test the test system is Spca-2 cells. In words: MTT cytotoxicity assay, Spca-2. The test is classed as cell-based, human. The conditions noted are these: 72 h; mean ± SD, three independent experiments.
From the text: as §1, §2
as §3, with “Each concentration was repeated in three wells and the same experimental conditions were provided for all compounds and MTT analysis was repeated three times for each cell line.” left out

For test [7], the system named is ct-DNA. Put plainly: Circular dichroism spectra of ct-DNA. It is filed as binding, calf. To be noted: [5b]/[DNA] ratio 1:10. The text has this:
The circular dichroism (CD) is a useful technique to assess whether the nucleic acids undergo conformational changes as a result of complex formation or changes in environmental conditions. […] This was consistent with the characteristic B conformation of DNA [56].
The decrease in the intensities of both positive and negative bands can usually be observed in the intercalative binding of small molecules to DNA [57].
where [DNA] is the DNA concentration in nucleotides, ɛa is the molar extinction coefficient of the compound bound with DNA, ɛf is the extinction coefficient of the free compound, and ɛb is the extinction coefficient of the compound fully bound to DNA. ɛa, ɛf and ɛb are all calculated from the Lambert-Beer’s law (ɛ = A/[compound]). To determine ɛb, it is assumed that the compounds are fully bound with DNA at the point where no further hypochromicity is observed under the addition of ct-DNA, and the apparent absorbance Ab is regarded as the absorbance of only the bound compounds. […] Fluorescence emission spectra were recorded under slit width as 10 nm/10 nm for Ex/Em, respectively. The quenching constant for comparing the efficiency of fluorescence quenching, i.e., Kq, of each compound was obtained by the linear fit of plotting I0/I versus [Q], according to the classic Stern-Volmer equation: I0/I = 1 + Kq × [Q] […]
On the technique in general: CD spectra are sensitive to the conformation of chiral molecules.

Read-outs that look alike come from different tables or passages of the source. A value given as a limit tells only on which side of the number the result lay.

For `O=c1[nH]cc(F)c(=O)[nH]1` [5-Fu, fluorouracil, reference compound], the IC50 is 20.3 ± 2.43 µM with HepG-2 cells [1] (Homo sapiens, HepG2); above 50 µM with CNE cells (Homo sapiens, CNE); above 50 µM with Hela cells (Homo sapiens, HeLa); 4.3 ± 0.52 µM in the test on Hct-116 cells [2].
On to `CCOP(=O)(OCC)C(C)(NC(=O)c1cc(O)c2c(c1)C(=O)c1cccc(O)c1C2=O)c1ccc(C)cc1` (centres unmarked) [5a], for which the IC50 was above 100 µM with HUVEC cells; 15.1 ± 1.54 µM with HepG-2 cells [1]; 30.6 ± 8.75 µM with Hct-116 cells [5]; 33.8 ± 2.17 µM in the test on CNE cells; above 50 µM with Hela cells; 16.9 ± 1.32 µM in the test with Spca-2 cells. The G2-phase population in the test on HepG-2 cells [3] (HepG-2, 20 μM) came out at 7.23%; in the test on HepG-2 cells [3] (HepG-2, 30 μM), 11.08%; in the test with HepG-2 cells [3] (HepG-2, 40 μM), 18.05%. Besides, in the test with ct-DNA [4], the “quenching constant Kq (Stern-Volmer)” value is on record as 2.02 × 10^3. Besides, in the test on HepG-2 cells [6], the “apoptosis induced, % of HepG-2 cells” value was found to be 84.4%.
On to `CCOP(=O)(OCC)C(C)(CCc1ccccc1)NC(=O)c1cc(O)c2c(c1)C(=O)c1cccc(O)c1C2=O` (centres unmarked) [5b, O,O′-Diethyl{[2-(4,5-dihydroxy-9,10-dioxo-9,10-dihydroanthracene)acetamido] (Phenylethyl)ethyl} phosphonate], for which the IC50 with HUVEC cells was above 100 µM; in the test on HepG-2 cells [1] it was 8.82 ± 0.95 µM; with Hct-116 cells [5], 12.7 ± 1.5 µM; with CNE cells, 27.3 ± 3.78 µM; in the test with Hela cells, 45.4 µM; in the test on Spca-2 cells it was 9.01 ± 0.87 µM. The G2-phase population with HepG-2 cells [3] (HepG-2, 10 μM) was found to be 8.52%; with HepG-2 cells [3] (HepG-2, 20 μM), 14.56%; with HepG-2 cells [3] (HepG-2, 30 μM), 18.23%. The “quenching constant Kq (Stern-Volmer)” value in the test on ct-DNA [4] is 3.2 × 10^3. Moreover, the “percentage decrease in maximal DNA negative CD absorption” value with ct-DNA [7] (negative band at 245 nm) was determined as 32.2%. The “percentage decrease in maximal DNA positive CD absorption” value with ct-DNA [7] (positive band at 280 nm) was 9.78%. For the same compound, the “apoptosis induced, % of HepG-2 cells” value with HepG-2 cells [6] is recorded as 70.4%.
Turning to `O=C(O)c1cc(O)c2c(c1)C(=O)c1cccc(O)c1C2=O` [Rhein], the IC50 with HUVEC cells (Homo sapiens, HUVEC) is 79.7 ± 5.4 µM; in the test on Hela cells (Homo sapiens, HeLa), above 50 µM. Besides, the “quenching constant Kq (Stern-Volmer)” value in the test on ct-DNA [4] was 3.94 × 10^3.
Consider “O,O′-Diethyl {[2-(4,5-dihydroxy-9,10-dioxo-9,10-dihydroanthracene) acetamido] (phenyl) methyl} phosphonate [5c]”, for which the IC50 was above 100 µM in the test with HUVEC cells; 18.2 ± 1.87 µM in the test with HepG-2 cells [1]; 23.4 ± 3.22 µM with Hct-116 cells [5]; 38.3 ± 8.23 µM in the test on CNE cells; above 50 µM in the test on Hela cells; 25.1 ± 2.72 µM in the test on Spca-2 cells. In addition, the “quenching constant Kq (Stern-Volmer)” value in the test with ct-DNA [4] is recorded as 0.753 × 10^3.
